Reference: patent US5736568A, “2-(aminoalkoxy) phenylalkylamines with antiinflammatory activity” (Knoll Aktiengesellschaft, priority 1994, dated 1998)

What was measured:
[1] = tested on: arachidonic acid release from zymosan stimulated macrophages; test: Test A: Inhibition of Arachidonic Acid Release from Zymosan Stimulated Macrophages; assay type: cell-based, mice (female MF1); details: Mus musculus, Macrophage; peritoneal macrophages labelled with [3H]-arachidonic acid, zymosan stimulus, 5 h; tested at 100, 50, 20, 10, 5 and 1 μM
Method: Test A was carried out in the following way:
Inhibition of Arachidonic Acid Release from Zymosan Stimulated Macrophages
Female MF1 mice (weighing 20 to 25 g) were killed using a rising concentration of CO2. The mice were laid on their backs and the abdomens wiped with 70% alcohol. The skin was pulled back, exposing the peritoneal wall. Medium A (5 ml) (see below) was injected into the peritoneal cavity of each mouse followed by approximately 1 ml of air using a 20 ml syringe and a 21 G×40 mm needle in order to form a suspension of macrophage cells. The medium and cells were then removed using a 19 G×40 mm needle. The resulting suspension was returned to a sterile beaker kept on ice. The extracts from all the mice were pooled and this pooled cell suspension was counted using a Coulter counter and adjusted to a final cell count of 1-1.3×10^6 cells/ml prior to labelling with [^3 H]-arachidonic acid. Typically five mice provided sufficient cells for each multiwell plate.
Sufficient [^3 H]-arachidonic acid in ethanol to give a final concentration of 1.6 μCi/ml (equivalent to 40 μCi/plate) was blown to dryness under nitrogen. The arachidonic acid was then resuspended in 1 or 2 ml of the cell suspension which was then mixed with the remainder of the cell suspension in a centrifuge bottle.
The following day, non-adherent cells were removed by washing 3 times with sterile phosphate buffered saline (PBS). The adherent peritoneal macrophages were then cultured for a further 24 hours in the presence or absence of drugs, in medium B (see below) at 37° in a 5% CO2 atmosphere in order to measure the effects of drugs on the spontaneous release of arachidonic acid in the absence of stimulus. After this incubation, supernatants were removed to give medium 1 and stored in sealed multi-well plates at 4° C. prior to scintillation counting. […] The supernatants were replaced by fresh medium C containing fresh drug and a stimulus. Three drugs were tested at six concentrations (100, 50, 20, 10, 5 and 1 μM) in replicates of four on each plate. The other wells contained controls consisting of a positive control (e.g. dexamethasone), medium (B) only and medium C only.
Incubation was then continued for a further 5 hours, whereupon the supernatants were collected to give medium 2 and the adherent cells washed with PBS. The cells were then lysed with 100 μl of 0.1% TRITON® X100 in a 0.1% solution of bovine serum albumin in 0.9% saline and mechanically disrupted to give cell lysates. These supernatants (medium 2) and cell lysates (Cells) were also stored in sealed multi-well plates at 4° C. prior to scintillation counting. 200 μl aliquots of media, or 100 μl aliquots of cells were counted using 2 ml of OPTIPHASE "HIGH SAFE" (Trademark of LKB) as scintillant.
The percentage of arachidonic acid released was calculated using the mean values for each group of 4 wells in the following equation. [formula]
The percentage inhibition of arachidonic acid release caused by a drug may then be calculated using the following equation. [formula]
Medium A (for peritoneal lavage)
This mixture was transferred to sterile flask and made up to 400 ml with sterile water.
Medium B (for cell culture)
This mixture was transferred to a sterile beaker and made up to 650 ml with sterile water.
Medium C=medium B+stimulant (zymosan)
The zymosan stimulant was prepared as follows:--zymosan (200 mg) (supplied by Sigma) was added to PBS (20 ml). The mixture was boiled for 30 minutes and the volume restored to 20 ml with water. The zymosan was harvested by centrifugation at 500×g for 5 minutes, washed twice by resuspension in PBS (10 ml) and centrifugation. After the final separation, the zymosan was resuspended in 20 ml PBS and stored as 1 ml aliquots at -20° C.

[2] = tested on: carrageenan-induced paw oedema; test: Test B: Carrageenan-induced rat paw oedema test; assay type: in vivo; details: inhibition of paw oedema, 100 mg/kg oral, 3 h after carrageenan
Method: Test B was carried out in the following way:
Carrageenan-induced rat paw oedema test
Female rats, weight range 125-150 g were fasted overnight. One of the hind legs of each animal was marked with a line at the connection between the cuboid/navicular and calcaneus/talus bones. Groups of six rats were orally dosed at 10 ml/kg, in random order, with a given dose of the test compound given as a solution or suspension in 10% (w/v) aqueous acacia solution.
One hour after dosing, 0.1 ml of 1% (w/v) sterile carrageenan λ in normal saline was injected deeply into the plantar surface of the marked hind foot of each rat. The volume of the foot (up to the marked line) was measured immediately after injection using duplicate water displacement readings. Three hours after injection the foot volume was measured again and the percentage increase in foot volume relative to the initial reading was calculated.
The increase in foot volume (i.e. the degree of oedema) in drug treated animals when compared with that in the drug untreated control gave the degree of inhibition of paw oedema by the drug.
Compounds were considered to be active in this test if they produced a statistically significant (typically 20% or greater) inhibition of paw oedema in at least two out of three tests after oral dosing at 100 mg/kg. Statistical significance was assessed using the Student's t test for single dose studies and Dunnett's test for multiple dose studies. More advantageous compounds were active in both Tests A and B,

[3] = tested on: carrageenan-induced pleurisy; test: Test C: Carrageenan-induced pleurisy in rats; assay type: in vivo, rat; details: 24 h and 48 h, leukocytes harvested at 72 h; for activity in Test C at 10 mg/kg or less: 10 mg/kg or less p.o. at challenge; for activity in Test C at 30 mg/kg: 30 mg/kg p.o. at challenge
Method: The most advantageous compounds of formula I were active in Test A and also in the following test. Carrageenan-induced pleurisy in rats was carried out as described by Ackerman et al. J. Pharmacol. Exp. Therap. 1980, 215, 588-595. Migrating leukocytes were harvested by lavage of the thoracic cavity 72 h after injection of 0.3 ml 1% λ-carrageenan in sterile isotonic saline. Test compounds were administered p.o. at the time of challenge and 24 h and 48 h thereafter.

| SMILES | IC50 [1] [µM] | inhibition at 100 mg/kg [2] [%] | activity in Test C at 10 mg/kg or less [3] | activity in Test C at 30 mg/kg [3] |
| --- | --- | --- | --- | --- |
| CN(C)Cc1cc(Cl)ccc1OCCN1CCCCC1 [Example 16, 5-Chloro-2-(2-piperidinoethoxy)-N,N-dimethylbenzylamine] | 26 | – | – | – |
| CN(C)Cc1cc(C(N)=O)ccc1OCCN(C)Cc1ccc(Cl)cc1 [Example 31, 4-{2-[N-(4-chlorobenzyl)-N-methylamino]ethoxy}-3-(dimethylaminomethyl)benzamide] | 39 | 19 | – | – |
| CN(C)Cc1cccc(Cl)c1OCCN(C)Cc1ccccc1 [Example 2, 2-[2-(N-Benzyl-N-methylamino)ethoxy]-3-chloro-N,N-dimethylbenzylamine] | 65 | – | – | – |
| CN(C)Cc1c(OCCN(C)Cc2ccccc2)ccc(Cl)c1Cl [Example 13, 2-[2-(N-Benzyl-N-methylamino)ethoxy]-5,6-dichloro-N,N-dimethylbenzylamine] | 8 | 70 | – | active |
| CN(CCOc1cccc(Cl)c1CN)Cc1ccccc1 [Example 37, 2-[2-(N-benzyl-N-methylamino)ethoxy]-6-chlorobenzylamine] | 12 | – | active | – |
| CN(C)Cc1cc(Cl)ccc1OCCN(C)Cc1ccc(C(N)=O)cc1 [Example 30, 4-{N-[2-(4-chloro-2-dimethylaminomethylphenoxy)ethyl]-N-[methyl]aminomethyl}benzamide] | 74 | – | – | – |
| CN(CCOc1ccc(Cl)cc1CN1CCCCC1)Cc1ccccc1 [Example 11, N-Benzyl-2-[4-chloro-2-(piperidinomethyl)phenoxy]-N-methylethylamine] | 10 | 47 | – | active |
| CN(CCOc1ccc(Cl)cc1CN)Cc1ccccc1 [Example 28, 2-[2-(N-benzyl-N-methylamino)ethoxy]-5-chlorobenzylamine] | 18 | – | – | – |
| COc1ccc(OCCN(C)Cc2ccccc2)c(CN)c1 [Example 27, 2-[2-(N-benzyl-N-methylamino)ethoxy]-5-methoxybenzylamine] | 34 | – | – | – |
| CN(C)Cc1cc(Cl)ccc1OCCN(C)Cc1ccc(C#N)cc1 [Example 10, 4-{N-[2-(4-Chloro-2-dimethylaminomethylphenoxy)ethyl]-N-[methyl]aminomethyl}benzonitrile] | 47 | – | – | – |
| CN(C)Cc1cc(Cl)ccc1OCCNCc1ccccc1 [Example 9, 2-[2-(Benzylamino)ethoxy]-5-chloro-N,N-dimethylbenzyl-amine] | 9 | 56 | – | – |
| CN(C)Cc1cc(C(F)(F)F)ccc1OCCN(C)Cc1ccccc1 [Example 7, 2-[2-(N-Benzyl-N-methylamino)ethoxy]-N,N-dimethyl-5-trifluoromethylbenzylamine] | 20 | 18 | – | – |
| CN(CCCOc1cccc(Cl)c1CN)Cc1ccccc1 [Example 29, 2-[3-(N-benzyl-N-methylamino)propoxy]-6-chlorobenzylamine] | 15 | – | – | – |

More lines, main results first:

| IC50 [1] [µM] | SMILES | inhibition at 100 mg/kg [2] [%] | activity in Test C at 10 mg/kg or less [3] | activity in Test C at 30 mg/kg [3] |
| --- | --- | --- | --- | --- |
| 50 | CN(C)CCCOc1ccccc1CN(C)C [Example 24, N,N-dimethyl-2-(3-dimethylaminopropoxy) benzylamine] | – | – | – |
| 33 | COC(=O)c1ccc(OCCN(C)Cc2ccccc2)c(CN(C)C)c1 [Example 26, methyl 4-[2-(N-benzyl-N-methylamino)ethoxy]-3-(dimethylaminomethyl) benzoate] | – | – | – |
| 39 | CN(C)Cc1cc(O)ccc1OCCN(C)Cc1ccccc1 [Example 32, 4-[2-(N-benzyl-N-methylamino)ethoxy]-3-(dimethylaminomethyl)phenol] | 0 | – | – |
| 62 | CN(C)CCOc1ccccc1CN(C)C [Example 23, 2-(2-dimethylaminoethoxy)-N,N-dimethylbenzylamine] | – | – | – |
| 35 | COc1ccc(OCCN(C)Cc2ccccc2)c(CN(C)C)c1 [Example 34, 2-[2-(N-benzyl-N-methylamino)ethoxy]-5-methoxy-N,N-dimethylbenzylamine] | – | – | – |
| 16 | CN(C)Cc1c(Cl)cccc1OCCN(C)Cc1ccccc1O [Example 33, 2-{N-[2-(3-chloro-2-dimethylaminomethylphenoxy)ethyl]-N-[methyl]aminomethyl}phenol] | – | active | – |
| 24 | COc1ccc(CN(C)C)c(OCCN(C)Cc2ccccc2)c1 [Example 18, 2-[2-(N-Benzyl-N-methylamino)ethoxy]-4-methoxy-N,N-dimethylbenzylamine] | – | – | – |
| 3 | CN(C)Cc1ccccc1OCCNC(C)(C)c1ccc(Cl)cc1 [Example 36, 2-[2-(4-chloro-α,α-dimethylbenzylamino)ethoxy]-N,N-dimethylbenzylamine] | – | active | – |
| 45 | CN(C)Cc1ccccc1OCCN(C)Cc1ccccc1Cl [Example 14, 2-{2-[N-(2-Chlorobenzyl)-N-methylamino]ethoxy}-N,N-dimethylbenzylamine] | – | active | – |
| 15 | CN(C)Cc1c(Cl)cccc1OCCN(C)Cc1ccccc1 [Example 1, 2-[2-(N-benzyl-N-methylamino)ethoxy]-6-chloro-N,N-dimethylbenzylamine] | 70 | active | – |
| 14 | CN(C)CCOc1ccc(Cl)cc1CN(C)C [Example 22, 5-Chloro-2-(2-dimethylaminoethoxy)-N,N-dimethylbenzylamine] | 26 | – | active |
| 33 | CN(C)Cc1c(Cl)cccc1OCCCN(C)Cc1ccccc1 [Example 35, 2-[3-(N-benzyl-N-methylamino)propoxy]-6-chloro-N,N-dimethylbenzylamine] | – | active | – |
| 12 | CN(C)Cc1cc(Cl)c(Cl)cc1OCCN(C)Cc1ccccc1 [Example 5, 2-[2-(N-Benzyl-N-methylamino)ethoxy]-4,5-dichloro-N,N-dimethylbenzylamine] | 6 | – | – |
| 65 | CCN(CC)CCOc1ccccc1CN(C)C [Example 19, 2-(2-diethylaminoethoxy)-N,N-dimethylbenzylamine] | – | – | – |
| 30 | CCN(CC)CCOc1ccc(Cl)cc1CN(C)C [Example 25] | 22 | – | – |
| 60 | CN(C)Cc1cc(C#N)ccc1OCCN(C)Cc1ccccc1 [Example 4, 4-[2-(N-Benzyl-N-methylamino)ethoxy]-3-(dimethylaminomethyl)benzonitrile] | – | – | – |
